# Measured values as given in patent US12077512B2, “Compositions and methods for reducing tactile dysfunction, anxiety, and social impairment” (President and Fellows of Harvard College, priority 2019, dated 2024).
# Key:
# [1] = system: Advillin^Cre and Mecp^2f/y mice and control littermates; experiment: Tactile prepulse inhibition (PPI): startle response to a 125 dB noise preceded by a light air puff; format: in vivo; details: i.p., 2 mg/kg vs saline, both Mecp2 mutants and controls
# Protocol: FIG. 1 is a graph showing percent inhibition of the startle response to a 125 dB noise, when the startle noise is preceded by a light air puff in mice following i.p. administration of either saline or 2 mg/kg midazolam treatment. Two-way ANOVA with post-hoc Sidak's test, *, p<0.05.
# [2] = system: Advillin^Cre and Mecp^2f/y mice and control littermates; experiment: Magnitude of startle response to a 125 dB noise; format: in vivo; details: i.p., 2 mg/kg vs saline, all mice
# Protocol: FIG. 3 is a graph showing magnitude of startle response to a 125 dB noise in mice following i.p. administration of either saline or 2 mg/kg midazolam treatment. Responses are expressed as percent of startle response to a 125 dB noise. Two-way ANOVA with post-hoc Sidak's test, *, p<0.05.
smiles,measurement,setting,value
Cc1ncc2n1-c1ccc(Cl)cc1C(c1ccccc1F)=NC2 [midazolam],"tactile sensitivity (percent inhibition of the startle response to a 125 dB noise when preceded by a light air puff, tactile PPI)",[1],significantly attenuated tactile sensitivity
same,sedation,[2]; evidenced by startle amplitude,caused significant sedation
same,reduction in startle amplitude,[2]; startle to 125 dB noise,~50%
